Reference: US20240109877A1, “PYRIMIDINES FOR DEGRADING BRUTON'S TYROSINE KINASE” (AbbVie Inc., priority 2022, published 2024)

Legend:
[1] = molecular target: BTK protein in human whole blood (Homo sapiens (Human), UniProt Q06187); test: Btk protein in human whole blood MSD ELISA based assay (Btk degradation); format: cell-based; conditions: human whole blood from healthy donors, 6 hours at 37° C., half maximal degradation concentration; read-out: hWB BTK DC50
Experimental: Btk protein degradation was tested using an Meso Scale Discovery-ELISA system (MSD-ELISA): (1) Test compounds were added to human whole blood; (2) human whole blood cells treated with test compounds were lysed; (3) lysed cells were treated with capture antibody, an antibody to Btk; (4) lysed cells were treated with […] to Btk; and (5) lysed cells were treated with anti-mouse antibody (tagged).
Specifically, about 80 μl of fresh human whole blood from healthy donors was transferred into each well of a 96-well V-bottom plate (Costar, Cat No.3894). Using a TECANTM D300e Digital Dispenser (Tecan)), 1:4 serially diluted compounds [(8 pt assay) in DMSO solution (final 0.2%) starting at 3 μM top concentration], were added in duplicate. Thereafter, plates were placed in a 37° C. incubator and incubated for 6 hours.
At the end of incubation, 80 μl of 2× CST lysis buffer (Cell Signaling Technology, Cat No. 9803), prepared from a 10× stock solution, was added per well to lyse the blood. Plates were then sealed with a plate sealer and the samples were frozen overnight at −80° C.
Total amount of BTK protein remaining in the blood samples after compound treatment was measured using MSD-ELISA. After thawing the frozen plates, blood lysates were mixed thoroughly and transferred to small spot high-bind MSD plates (Meso Scale Discovery, Cat No. L45XB-3) and coated with capturing antibody, rabbit anti-human BTK (D3H5) (Cell Signaling Technology, Cat No. 8547CF). Thereafter, primary detection antibody, mouse anti-human BTK monoclonal antibody, (BD Biosciences, Cat No. 611117) and secondary detection antibody, anti-mouse SULFO-TAG (Meso Scale Discovery, Cat No. R32AC-1) were added. The assay plates were read on an MSD S600 plate reader by the addition of 2× MSD read buffer (Meso Scale Discovery, R92TC-1). All reagent transfers, including blood lysis, was conducted using a Biomed i7 liquid handler. From the dose response curves, DC50 values were calculated by averaging data from duplicate experiments. and Curve fitting was done by non-linear regression using GraphPad Prism. The DC50 values are reported in Table 2 in the hWB BTK DC50 (nM) column The Dmax values represent the maximum amount of BTK degradation observed upon compound treatment compared to DMSO only treated samples. The dMax (%) values are reported in Table 2 in the hWB BTK dMax (%) column.

BTK in mouse bone marrow = BTK in mouse bone marrow (Mus musculus (Mouse), UniProt P35991); test: Mouse Bone Marrow Assay (MSD ELISA of BTK degradation in mouse bone marrow); format: in vivo; conditions: female C57BL/6J mice, single dose of Dose A, bone marrow collected after 24 hours, % remaining BTK in vehicle versus treated samples
Experimental: Female C57BL/6J mice (Jackson Laboratories) were used for this study. Compounds or vehicle/control were prepped with EtOH; PEG-400; Phosal 53 MCT (10:30:60, v/v). Four mice were tested per compound or vehicle/control. On Day 1, mice were administered a single dose of Dose A. On Day 2 (after 24 hours), tissue (bone marrow) was collected from one hind leg per mouse.
An MSD (Meso Scale Discovery) ELISA (enzyme-linked immunosorbent assay) based assay was used to determine BTK degradation in mouse bone marrow. The following materials and equipment were used: 10% NP40 solution (nonionic polyoxyethylene surfactant, ThermoFisher, cat no. 28324); protease inhibitor mini tablet (Roche, cat no. 05 892 970 001); PhosphoSTOP™ tablet (Roche, cat no. 04 906 837 001); Pierce™ BCA Protein Assay Kit (Thermofisher, Cat No. 23225); Precellys® 2 mL lysing tube with 2.8 mm beads (VWR, cat no. 10032-756); Bertin Precellys® 24/Cryolys ® cooling system; 96-well MSD streptavidin pre-coated plates (MSD, cat no. L15SA-1); MSD Blocker A (MSD, cat no. R93BA-4); capture antibody, biotinylated BTK mAb (BD Biosciences, cat no. 624008; custom order); primary detection antibody, BTK RpAb (rabbit polyclonal antibody, CST, cat no. 8547S, D3H5 clone); secondary detection antibody, anti-Rabbit-Sulfo-Tag (MSD, cat no. R32AB-1); read Buffer, 4× (MSD, cat no. R92TC-1); recombinant BTK protein (Thermofisher, cat no. PR5442A); MSD Tris Wash Buffer (10×) (MSD, cat no. R61TX-1); PBS (phosphate-buffered saline); deionized water (diH2O); Lysis Buffer [0.2% NP40 in PBS+Protease Inhibitor tablet (1 tablet/10 mL)+PhosphoSTOP tablet (1 tablet/10 mL)]; 3% MSD Blocker A [MSD Blocker A+450 mL diH2O+50 mL]; and 10× MSD Tris Wash Buffer.
Lysis buffer [(PBS+0.2% NP40+PI (protease inhibitor)+PhosphoSTOP)]was prepared and put on ice until it was fully cold. Ice cold lysis buffer […] was added to each Precellys® tube containing beads and bone marrow sample. Sample tubes were transferred into Precellys® machine and homogenized using 5000 rpm -2×20 seconds. The sample lysates were centrifuged at 14,000 rpm for 20 minutes at 4° C. after homogenizing.
The protein concentration was determined using Pierce™ BCA Protein Assay Kit following manufacturer's recommended protocol. The protein normalized working solution was prepared, using 30 μg protein per sample lysate for assay.
A 300 ng/ml working stock solution of recombinant BTK protein in lysis buffer was prepared, and the sample was serially diluted at 3-fold dilution (10-point assay, highest concentration was 300 ng/mL and lowest concentration was 0.015 ng/mL)
MSD plate coating: Coating antibody (biotinylated-BTK mAb) stock solution was prepared at 1 μg/mL in PBS buffer. 50 μL/well capture antibody (Biotinylated BTK mAb) solution was added, and the plates were shaken gently at ambient temperature for two hours. The plates were washed 3 times with 1× MSD Tris Wash Buffer in a plate washer (300 μL/well), and the plates were blocked with 3% MSD Blocker A (150 μL/well). The plates were incubated for an additional 1-2 hours at ambient temperature with gentle shaking. The plates were washed 3 times with 1× MSD wash buffer using plate washer. Bone marrow lysates (30 μg) at a final volume of 50 μL/well were added into the plates. The serially diluted standard samples were added to the same plates at a final volume of 50 μL/well. The plates were incubated overnight at 4° C. with gentle shaking.
The plates were washed three times with 1× MSD wash buffer (prepared from 10× concentration buffer) using plate washer. Primary detection antibody at 50 μL/well was added (BTK RpAb; 1:1000 dilution in 1% MSD Blocker A). The plates were incubated for two hours at ambient temperature with gentle shaking. The plates were washed three times with 1× MSD wash buffer using plate washer. Anti-Rabbit-SULFO-TAG secondary antibodies (50 μl/well) were added, 1:500 diluted in 1% MSD Blocker A, and the plates were incubated for one to two hours at ambient temperature. […]

Sequence of BTK protein in human whole blood (Q06187 whole entry): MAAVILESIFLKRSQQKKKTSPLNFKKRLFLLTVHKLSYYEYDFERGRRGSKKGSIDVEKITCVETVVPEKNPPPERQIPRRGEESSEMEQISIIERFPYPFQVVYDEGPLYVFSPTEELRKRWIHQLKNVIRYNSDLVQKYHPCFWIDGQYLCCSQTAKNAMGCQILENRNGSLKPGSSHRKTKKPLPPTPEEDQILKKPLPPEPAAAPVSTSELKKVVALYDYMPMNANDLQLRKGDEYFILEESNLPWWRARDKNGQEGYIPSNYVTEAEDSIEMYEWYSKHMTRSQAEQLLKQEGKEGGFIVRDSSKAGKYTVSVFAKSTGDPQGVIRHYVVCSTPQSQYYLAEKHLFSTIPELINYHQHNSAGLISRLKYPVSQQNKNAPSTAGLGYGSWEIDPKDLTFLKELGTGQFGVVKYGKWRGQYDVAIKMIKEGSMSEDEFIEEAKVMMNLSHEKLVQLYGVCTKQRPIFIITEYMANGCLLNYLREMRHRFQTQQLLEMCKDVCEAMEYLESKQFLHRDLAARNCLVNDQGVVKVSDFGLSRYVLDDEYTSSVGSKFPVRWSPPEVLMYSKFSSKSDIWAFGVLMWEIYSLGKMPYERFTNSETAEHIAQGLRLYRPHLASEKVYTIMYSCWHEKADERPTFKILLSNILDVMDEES
Sequence of BTK in mouse bone marrow (P35991 whole entry): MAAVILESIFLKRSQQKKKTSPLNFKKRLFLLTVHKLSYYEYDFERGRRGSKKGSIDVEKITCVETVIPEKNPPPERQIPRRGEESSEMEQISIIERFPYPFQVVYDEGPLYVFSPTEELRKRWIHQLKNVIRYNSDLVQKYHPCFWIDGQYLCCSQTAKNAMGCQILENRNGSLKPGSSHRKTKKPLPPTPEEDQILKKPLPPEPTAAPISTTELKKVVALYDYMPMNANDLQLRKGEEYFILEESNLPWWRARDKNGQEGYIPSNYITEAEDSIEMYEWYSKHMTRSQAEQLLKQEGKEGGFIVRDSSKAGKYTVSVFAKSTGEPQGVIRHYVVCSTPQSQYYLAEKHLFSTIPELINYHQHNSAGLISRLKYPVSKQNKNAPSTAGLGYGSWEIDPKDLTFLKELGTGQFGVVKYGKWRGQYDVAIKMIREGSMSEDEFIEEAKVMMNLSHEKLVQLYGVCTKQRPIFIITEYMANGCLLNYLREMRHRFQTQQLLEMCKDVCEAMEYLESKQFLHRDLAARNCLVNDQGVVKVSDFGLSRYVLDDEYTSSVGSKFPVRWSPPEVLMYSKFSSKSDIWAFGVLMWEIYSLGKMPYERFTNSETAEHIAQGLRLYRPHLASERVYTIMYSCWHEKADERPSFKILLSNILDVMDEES

SMILES | DC50 [1] [nM] | Mouse Bone Marrow (%), % remaining BTK (BTK in mouse bone marrow) [%]
Cc1c([C@@H](C)NC(=O)c2nc(C(C)(C)C)no2)ccc(-c2cc(Nc3ccc(N4CCN(CCc5ccc(N6CCC(=O)NC6=O)cc5)C[C@@H]4C)cn3)ncn2)c1F [Example 10, 3-tert-butyl-N-[(1R)-1-{4-[6-({5-[(2S)-4-{2-[4-(2,4-dioxo-1,3-diazinan-1-yl)phenyl]ethyl}-2-methylpiperazin-1-yl]pyridin-2-yl}amino)pyrimidin-4-yl]-3-fluoro-2-methylphenyl}ethyl]-1,2,4-oxadiazole-5-carboxamide] | 3.04 | 9
Cc1c([C@@H](C)NC(=O)c2nc(C(C)(C)C)no2)ccc(-c2cc(Nc3ccc(N4CCN(CCc5ccc(N6CCC(=O)NC6=O)cc5)CC4)cn3)ncn2)c1F [Example 11, 3-tert-butyl-N-{(1R)-1-[4-(6-{[5-(4-{2-[4-(2,4-dioxo-1,3-diazinan-1-yl)phenyl]ethyl}piperazin-1-yl)pyridin-2-yl]amino}pyrimidin-4-yl)-3-fluoro-2-methylphenyl]ethyl}-1,2,4-oxadiazole-5-carboxamide] | 4.31 | 29
